Laboratory results reported in patent US12708630B2, “Combined therapy of 4′-thio-5-aza-2′-deoxycytidine and Venetoclax” (PINOTBIO, INC., priority 2021, dated 2026).

Columns and labels:
Test in all cases: drug activity profiling cytotoxicity
Format in all cases: cell-based
BC-1 = conditions: Homo sapiens, BC1; BC-1 cell line, B-cell lymphoma; read-out: Aza-T-dCyd IC50
Description: (§1) To obtain a biomarker for Aza-T-dCyd, drug activity profiling analysis was performed to evaluate the cytotoxicity of 200 cell lines.
(§2) The drug responsiveness analysis of Aza-T-dCyd through drug activity profiling and genomic analysis of 200 cell lines confirmed the potent efficacy of Aza-T-dCyd in various solid tumors (Table 2).

HT-1197 = conditions: Homo sapiens, HT1197; HT-1197 cell line, Bladder; read-out: Aza-T-dCyd IC50
Description: as §1, §2

H4 = H4 cell line, CNS (Glioma); read-out: Aza-T-dCyd IC50
Description: as §1, §2

HCT-15 = conditions: Homo sapiens; HCT-15 cell line, Colon; read-out: Aza-T-dCyd IC50
Description: as §1, §2

U-138MG = conditions: Homo sapiens, U138-MG; U-138MG cell line, CNS (Glioma); read-out: Aza-T-dCyd IC50
Description: as §1, §2

J82 = conditions: Homo sapiens; J82 cell line, Bladder; read-out: Aza-T-dCyd IC50
Description: as §1, §2

C-33A = conditions: Homo sapiens; C-33A cell line, Female GU (Cervix); read-out: Aza-T-dCyd IC50
Description: as §1, §2

Hs 688(A).T = Hs 688(A).T cell line, Skin (Melanoma); read-out: Aza-T-dCyd IC50
Description: as §1, §2

SCC-9 = conditions: Homo sapiens; SCC-9 cell line, Head and Neck; read-out: Aza-T-dCyd IC50
Description: as §1, §2

NCI-H508 = conditions: Homo sapiens; NCI-H508 cell line, Colon; read-out: Aza-T-dCyd IC50
Description: as §1, §2

MeWo = conditions: Homo sapiens; MeWo cell line, Skin (Melanoma); read-out: Aza-T-dCyd IC50
Description: as §1, §2

SK-PN-DW = SK-PN-DW cell line, Sarcoma; read-out: Aza-T-dCyd IC50
Description: as §1, §2

DLD-1 = conditions: Homo sapiens; DLD-1 cell line, Colon; read-out: Aza-T-dCyd IC50
Description: as §1, §2

SH-4 = conditions: Homo sapiens; SH-4 cell line, Skin (Melanoma); read-out: Aza-T-dCyd IC50
Description: as §1, §2

CML-T1 = CML-T1 cell line, read-out: Aza-T-dCyd IC50
Description: as §1, §2

MOLT-16 = conditions: Homo sapiens; MOLT-16 cell line, ALL; read-out: Aza-T-dCyd IC50
Description: as §1, §2

Colo 205 = conditions: Homo sapiens; Colo 205 cell line, Colon; read-out: Aza-T-dCyd IC50
Description: as §1, §2

SW872 = conditions: Homo sapiens; SW872 cell line, Sarcoma; read-out: Aza-T-dCyd IC50
Description: as §1, §2

RS4; 11 = conditions: Homo sapiens, 11 cell line, ALL, read-out: Aza-T-dCyd IC50
Description: as §1, §2

SW403 = conditions: Homo sapiens, SW-403; SW403 cell line, Colon; read-out: Aza-T-dCyd IC50
Description: as §1, §2

SW620 = conditions: Homo sapiens, SW-620; SW620 cell line, Colon; read-out: Aza-T-dCyd IC50
Description: as §1, §2

MDA MB 231 = conditions: Homo sapiens; MDA MB 231 cell line, Breast; read-out: Aza-T-dCyd IC50
Description: as §1, §2

HT = conditions: Homo sapiens; HT cell line, B-cell lymphoma; read-out: Aza-T-dCyd IC50
Description: as §1, §2

HT-1080 = conditions: Homo sapiens; HT-1080 cell line, Sarcoma; read-out: Aza-T-dCyd IC50
Description: as §1, §2

UM-UC-3 = conditions: Homo sapiens, UMUC3; UM-UC-3 cell line, Bladder; read-out: Aza-T-dCyd IC50
Description: as §1, §2

LS-174T = conditions: Homo sapiens, LS174T; LS-174T cell line, Colon; read-out: Aza-T-dCyd IC50
Description: as §1, §2

BE(2)C = conditions: Homo sapiens; BE(2)C cell line, CNS (Neuroblastoma); read-out: Aza-T-dCyd IC50
Description: as §1, §2

NCI-H295R = conditions: Homo sapiens; NCI-H295R cell line, Endocrine (Adrenal gland); read-out: Aza-T-dCyd IC50
Description: as §1, §2

C-4 II = conditions: Homo sapiens; C-4 II cell line, Female GU (Cervix); read-out: Aza-T-dCyd IC50
Description: as §1, §2

HPAF-II = conditions: Homo sapiens; HPAF-II cell line, Pancreas; read-out: Aza-T-dCyd IC50
Description: as §1, §2

MS751 = MS751 cell line, Female GU (Cervix); read-out: Aza-T-dCyd IC50
Description: as §1, §2

`Nc1ncn([C@H]2CC(O)[C@@H](CO)S2)c(=O)n1` (stereo partly shown) [Aza-T-dCyd, 4′-thio-5-aza-2′-deoxycytidine] was tested, and the IC50 (BC-1) was 338 nM, the IC50 (HT-1197) was 7130 nM and the IC50 (H4) was 80.1 nM. The IC50 (HCT-15) was 1020 nM, the IC50 (U-138MG) was greater than 10000 nM and the IC50 (J82) was 1980 nM. For the same compound, the IC50 (C-33A) was 497 nM, the IC50 (Hs 688(A).T) was greater than 10000 nM and the IC50 (SCC-9) was 1830 nM. For the same compound, the IC50 (NCI-H508) was 542 nM, the IC50 (MeWo) was 1040 nM and the IC50 (SK-PN-DW) was 847 nM. It also gave an IC50 (DLD-1) of 221 nM, an IC50 (SH-4) of 698 nM and an IC50 (CML-T1) of 109 nM. For the same compound, the IC50 (MOLT-16) was 18.2 nM, the IC50 (Colo 205) was 81.1 nM and the IC50 (SW872) was 730 nM. The IC50 (RS4; 11) was 20.3 nM, the IC50 (SW403) was 619 nM and the IC50 (SW620) was 234 nM. For the same compound, the IC50 (MDA MB 231) was 210 nM, the IC50 (HT) was 1030 nM and the IC50 (HT-1080) was 120 nM. The IC50 (UM-UC-3) was 289 nM, the IC50 (LS-174T) was greater than 10000 nM and the IC50 (BE(2)C) was 373 nM. It also gave an IC50 (NCI-H295R) greater than 10000 nM, an IC50 (C-4 II) of 773 nM and an IC50 (HPAF-II) of 737 nM. For the same compound, the IC50 (MS751) was greater than 10000 nM.
